{
  "source": "patent US20090202659A1",
  "about": "“Modulation of Peripheral Clocks in Adipose Tissue” (priority 2005, published 2009)",
  "key": {"[1]": {"system": "undifferentiated human ASCs", "experiment": "Circadian gene expression induction in undifferentiated human ASCs (qRT-PCR)", "format": "cell-based", "settings": "for Rev-erbα and Rev-erbβ expression zenith, time: three donors", "excerpt": "Human Adipose-Derived Stem Cell (ASCs) Isolation and Expansion. All protocols were reviewed and approved by the Pennington Biomedical Research Center Institutional Research Board (IRB; Baton Rouge, La.) prior to the study. Liposuction aspirates from subcutaneous adipose tissue sites were obtained from female subjects undergoing elective procedures in local plastic surgical offices. Tissues were washed 3-4 times with phosphate-buffered saline (PBS) and suspended in an equal volume of PBS supplemented with 1% bovine serum and 0.1% collagenase type I (Worthington Biochemical Corporation, Lakewood, N.J.) prewarmed to 37° C. The tissue was then placed in a shaking water bath at 37° C. with continuous agitation for 60 min and centrifuged for 5 min at 300-500×g at room temperature. The supernatant, containing mature adipocytes, was aspirated. The pellet was identified as the stromal vascular fraction (SVF). Portions of the SVF were resuspended in cryopreservation medium (10% dimethylsulfoxide, 10% DMEM/F 12 Ham's, 80% fetal bovine serum), frozen at −80° C. in an ethanol-jacketed, closed container, and subsequently stored in liquid nitrogen. Portions of the SVF were used in colony forming unit assays (see below). The remaining cells of the SVF were suspended and plated immediately in T225 flasks in stromal medium (DMEM/F 12 Ham's, 10% fetal bovine serum (Hyclone, Logan, Utah), 100 U penicillin/100 μg streptomycin/0.25 μg Fungizone) at a density of 0.156 ml of tissue digest/sq cm of surface area for expansion and culture. This initial passage of the primary cell culture was referred to as “Passage 0” (P0). […] The cells were passaged by trypsin (0.05%) digestion and plated at a density of 5,000 cells/cm^2 (“Passage 1”). Cell viability and numbers at the time of passage were determined by trypan blue exclusion and hemacytometer cell counts. Cells were passaged repeatedly after achieving a density of 75-90% (approximately 6 days in culture) until Passage 2.\nCircadian Induction: The medium was removed from confluent cultures of undifferentiated or adipocyte-differentiated human ASCs in 6 well plates and replaced with DMEM/Ham's F12 medium and 100 U penicillin/100 μg streptomycin/0.25 μg Fungizone alone or supplemented with one of the following: 30% FBS, 1 μM dexamethasone, or 5 μM rosiglitazone. The ASCs were exposed to the inductive agents for 2 hr. A single plate under each condition was harvested for total RNA after 1 hr of induction. After 2 hr, the medium in the remaining plates was replaced with serum free DMEM/Ham's F12 medium and 100 U penicillin/100 μg streptomycin/0.25 μg Fungizone alone.\nQuantitative Real-time RT-PCR (qRT-PCR) for Human ASCs: Total RNA was purified from the ASCs as described above for mouse tissues using TriReagent (Molecular Research Center) according to the manufacturer's specifications. Approximately 2 μg of total RNA was reverse transcribed using Moloney Murine Leukemia Virus Reverse Transcriptase (MMLV-RT; Promega), with Oligo dT at 42° C. for 1 hr in a 20 μL reaction. Primers for genes of interest (listed in Table 2) were identified using Primer Express software (Applied Biosystems). All primers were based on the sequence of the corresponding human mRNA and were designed to amplify across at least one exon/intron junction. qRT-PCR was performed on diluted cDNA samples with SYBR® Green PCR Master Mix (Applied Biosystems) using the 7900 Real Time PCR system (Applied Biosystems) under universal cycling conditions (95° C. for 10 min; 40 cycles of 95° C. for 15 sec; then 60° C. for 1 min). All results were normalized relative to a Cyclophilin B expression control.\nPeriodicity Analysis: Periodicity of the circadian data obtained by qRT-PCR was tested with Time Series Analysis-Single Cosinor v. 6.0 software (Expert Soft Technologie). […] Model was also tested for validity at the 0.950 probability level (ANOVA)."}, "[2]": {"system": "adipocyte-differentiated human ASCs", "experiment": "Circadian gene expression induction in adipocyte-differentiated human ASCs (qRT-PCR)", "format": "cell-based", "excerpt": "Human Adipose-Derived Stem Cell (ASCs) Isolation and Expansion. All protocols were reviewed and approved by the Pennington Biomedical Research Center Institutional Research Board (IRB; Baton Rouge, La.) prior to the study. Liposuction aspirates from subcutaneous adipose tissue sites were obtained from female subjects undergoing elective procedures in local plastic surgical offices. Tissues were washed 3-4 times with phosphate-buffered saline (PBS) and suspended in an equal volume of PBS supplemented with 1% bovine serum and 0.1% collagenase type I (Worthington Biochemical Corporation, Lakewood, N.J.) prewarmed to 37° C. The tissue was then placed in a shaking water bath at 37° C. with continuous agitation for 60 min and centrifuged for 5 min at 300-500×g at room temperature. The supernatant, containing mature adipocytes, was aspirated. The pellet was identified as the stromal vascular fraction (SVF). Portions of the SVF were resuspended in cryopreservation medium (10% dimethylsulfoxide, 10% DMEM/F 12 Ham's, 80% fetal bovine serum), frozen at −80° C. in an ethanol-jacketed, closed container, and subsequently stored in liquid nitrogen. Portions of the SVF were used in colony forming unit assays (see below). The remaining cells of the SVF were suspended and plated immediately in T225 flasks in stromal medium (DMEM/F 12 Ham's, 10% fetal bovine serum (Hyclone, Logan, Utah), 100 U penicillin/100 μg streptomycin/0.25 μg Fungizone) at a density of 0.156 ml of tissue digest/sq cm of surface area for expansion and culture. This initial passage of the primary cell culture was referred to as “Passage 0” (P0). Following the first 48 hr of incubation at 37° C. at 5% CO2, the cultures were washed with PBS and maintained in Stromal Media until they achieved 75-90% confluence (approximately 6 days in culture). The cells were passaged by trypsin (0.05%) digestion and plated at a density of 5,000 cells/cm^2 (“Passage 1”). Cell viability and numbers at the time of passage were determined by trypan blue exclusion and hemacytometer cell counts. Cells were passaged repeatedly after achieving a density of 75-90% (approximately 6 days in culture) until Passage 2. […]\nQuantitative Real-time RT-PCR (qRT-PCR) for Human ASCs: Total RNA was purified from the ASCs as described above for mouse tissues using TriReagent (Molecular Research Center) according to the manufacturer's specifications. […]"}, "[3]": {"system": "adipocyte-differentiated human adipose stem cells", "experiment": "Effect of GSK3B inhibitor on dexamethasone-induced circadian gene expression profiles of human ASCs (qRT-PCR)", "format": "cell-based", "settings": "30 μM in serum-free media after 2 hr 1 μM dexamethasone, FIG. 12", "experimental": "Treatment of human adipose derived stem cells with dexamethasone was shown above to induce a circadian rhythm in vitro, and studies were conducted to see if this induction would be blocked by the addition of a glycogen synthase kinase 3 beta inhibitor. Confluent cultures of human ASCs were induced by exposure to 1 micromolar dexamethasone for a period of 2 hr. The medium was changed to either serum-free media (SF), or serum-free media with 30 μM SB415286 (SB415, an inhibitor of glycogen synthase kinase 3 beta). Individual cultures were harvested for total RNA at the indicated times and used for qRT-PCR analysis of gene expression of Bmal1, Per3, and Rev-erbα, and normalized relative to the corresponding Cyclophilin B levels."}, "[4]": {"system": "bipolar patients", "settings": "A. Fagiolini et al., 2002, 2003; cited from earlier work"}, "[5]": {"settings": "undifferentiated ASCs, 2 hr exposure"}, "[6]": {"settings": "adipocyte-differentiated vs undifferentiated ASCs"}, "[7]": {"settings": "1 μM for 2 hr, then serum free medium, four donors, FIG. 8B"}},
  "data": [
    {"compound": "CN(CCOc1ccc(CC2SC(=O)NC2=O)cc1)c1ccccn1", "note": "(stereo not shown) [thiazolidinedione, rosiglitazone]", "values": [
      {"measurement": "Per 3 immediate early response", "setting": "[1]; [5]", "result": "Neither 30% serum nor thiazolidinedione initiated an immediate early response"},
      {"measurement": "Rev-erbα and Rev-erbβ expression zenith, time", "setting": "[1]; [5]", "result": 24, "unit": "h"},
      {"measurement": "Per 3 peak expression earlier in adipocyte-differentiated than in undifferentiated ASCs", "setting": "[2]; [6]", "result": "approximately 4 hr"},
      {"measurement": "Rev-erbα and Rev-erbβ phase-advance relative to the undifferentiated ASCs", "setting": "[2]; [6]", "result": "~8", "unit": "h"}
    ]},
    {"compound": "O=C1NC(=O)C(c2ccccc2[N+](=O)[O-])=C1Nc1ccc(O)c(Cl)c1", "note": "[SB415286]", "values": [
      {"measurement": "effect on circadian cycle of gene expression", "setting": "[3]", "result": "shifted and lengthened"},
      {"measurement": "mRNA induction profile delayed and shifted (Bmal1, Per3, Rev-erb alpha)", "setting": "[3]; vs serum-free media alone", "result": "6 to 9", "unit": "h"}
    ]},
    {"compound": "[Cl-].[Li+]", "note": "[lithium chloride]", "values": [
      {"measurement": "weight change under pharmacotherapy", "setting": "[4]", "result": "gain weight rapidly and become obese"}
    ]},
    {"compound": "C[C@@H]1C[C@H]2[C@@H]3CCC4=CC(=O)C=C[C@]4(C)[C@@]3(F)[C@@H](O)C[C@]2(C)[C@@]1(O)C(=O)CO", "note": "[dexamethasone]", "values": [
      {"measurement": "Bmal1 peak levels, first peak, time following induction", "setting": "[1]; [7]", "result": "16 to 20", "unit": "h"},
      {"measurement": "Bmal1 peak levels, second peak, time following induction", "setting": "[1]; [7]", "result": 40, "unit": "h"},
      {"measurement": "Per1, Per3, and Cry2 expression peaks, time after induction", "setting": "[1]; [7]", "result": "28 to 32", "unit": "h"},
      {"measurement": "immediate-early induction of Per1, Per3, and Cry2 mRNAs, time after induction", "setting": "[1]; [7]", "result": "1 to 4", "unit": "h"},
      {"measurement": "phase shift of Bmal1 relative to Per1, Per3, and Cry2", "setting": "[1]; 1 μM for 2 hr, four donors", "result": "8 to 12", "unit": "h"},
      {"measurement": "Rev-erbα peak levels, time post induction", "setting": "[1]; 1 μM for 2 hr, four donors, FIG. 8B", "result": 24, "unit": "h"},
      {"measurement": "Rev-erbα and Rev-erbβ expression zenith, time", "setting": "[1]; [5]", "result": 24, "unit": "h"},
      {"measurement": "Per 3 subsequent peak, time", "setting": "[2]; adipocyte-differentiated ASCs, 2 hr exposure, three donors", "result": "20 to 24", "unit": "h"},
      {"measurement": "Rev-erbα and Rev-erbβ phase-advance relative to the undifferentiated ASCs", "setting": "[2]; [6]", "result": "~8", "unit": "h"}
    ]}
  ]
}
